# Laboratory results: publication PMC12203311, “Design, synthesis, in silico and in vitro evaluation of pyrrole–indole hybrids as dual tubulin and aromatase inhibitors with potent anticancer activities” (RSC Advances, 2025)
# Read-outs that look alike come from different tables or passages of the source.
# What was measured:
# [1] = tested on: KM12; assay: NCI60 five-dose screen; type: cell-based; details: Homo sapiens, KM12, colon cancer; for CC50: read-out: LC50 (the source's name)
# [2] = tested on: SF-539; assay: NCI60 five-dose screen; type: cell-based; details: Homo sapiens, SF-539, CNS cancer; for CC50: read-out: LC50 (the source's name)
# [3] = tested on: NCI-H522; assay: NCI60 five-dose screen; type: cell-based; details: Homo sapiens, NCI-H522, NSC lung cancer; for CC50: read-out: LC50 (the source's name)
# [4] = tested on: SK-MEL-5; assay: NCI60 five-dose screen; type: cell-based, human; details: for CC50: read-out: LC50 (the source's name)
# [5] = tested on: NCI/ADR-RES; assay: NCI60 five-dose screen; type: cell-based, human; details: Homo sapiens, ovarian cancer; for CC50: read-out: LC50 (the source's name)
# [6] = target: T1, Human CYP19 (aromatase) (Homo sapiens, UniProt P11511); assay: Aromatase inhibition assay (DBF fluorometric substrate); type: biochemical; details: active defined as IC50 < 12.5 µM
# T1 construct: purchased GENTEST, Woburn, MA 456260; host or cells: baculovirus/insect cells
# T1 sequence (P11511 1-503): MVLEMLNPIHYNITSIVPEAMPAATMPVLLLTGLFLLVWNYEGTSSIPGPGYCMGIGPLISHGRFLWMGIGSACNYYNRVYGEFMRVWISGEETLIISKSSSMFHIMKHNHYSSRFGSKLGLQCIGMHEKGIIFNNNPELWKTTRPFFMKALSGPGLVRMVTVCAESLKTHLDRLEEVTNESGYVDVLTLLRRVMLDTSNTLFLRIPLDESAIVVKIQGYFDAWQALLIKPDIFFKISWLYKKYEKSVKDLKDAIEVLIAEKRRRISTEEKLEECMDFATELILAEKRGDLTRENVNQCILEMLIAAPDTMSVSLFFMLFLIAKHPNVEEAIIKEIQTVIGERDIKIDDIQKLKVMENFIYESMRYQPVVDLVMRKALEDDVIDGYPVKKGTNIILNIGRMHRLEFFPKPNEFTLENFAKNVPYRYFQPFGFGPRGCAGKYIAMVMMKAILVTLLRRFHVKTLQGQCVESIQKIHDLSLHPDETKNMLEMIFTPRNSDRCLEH
# Experimental: Aromatase enzyme was purchased from GENTEST, Woburn, MA01801, USA (Supersom human CYP19+oxidoreductase, baculovirus/insect cell-expressed; Product No. 456260). The aromatase inhibitory activity was performed using Human CYP19 enzymes and DBF as a fluorometric substrate as described by Stresser, et al.[41] with minor modifications. The mixture, containing 100 µL of cofactor/serial dilution buffer was pre-incubated in 37 °C for 10 min. […] After incubation at 37 °C for 30 min, the reaction was stopped by addition of 50 µL of 2.2 M NaOH. Fluorescence signal was monitored using an excitation wavelength of 490 nm and emission wavelength of 530 nm.
# [7] = tested on: SNB-19; assay: NCI60 five-dose screen; type: cell-based; details: Homo sapiens, SNB-19, CNS cancer; for CC50: read-out: LC50 (the source's name)
# [8] = tested on: COLO 205; assay: NCI60 five-dose screen; type: cell-based, human; details: Homo sapiens; for CC50: COLO 205, COLO 205, colon cancer, read-out: LC50 (the source's name); for GI50: COLO 205, colon cancer
# [9] = tested on: SK-MEL-28; assay: NCI60 five-dose screen; type: cell-based; details: Homo sapiens, SK-MEL-28, melanoma; for CC50: read-out: LC50 (the source's name)
# [10] = tested on: A549/ATCC; assay: NCI60 five-dose screen; type: cell-based; details: Homo sapiens, NSC lung cancer; for CC50: read-out: LC50 (the source's name)
# [11] = tested on: UACC-62; assay: NCI60 five-dose screen; type: cell-based; details: Homo sapiens, UACC-62, melanoma; for CC50: read-out: LC50 (the source's name)
# [12] = tested on: TK-10; assay: NCI60 five-dose screen; type: cell-based; details: Homo sapiens, TK-10, renal cancer; for CC50: read-out: LC50 (the source's name)
# [13] = tested on: L929 normal mouse fibroblast cell line; assay: Cytotoxicity MTT assay, L929; type: cell-based; details: for Selectivity index (SI): IC50 (L929)/IC50 (T47D); for L929 cell survival / L929 toxicity at single concentration: 50 µM single concentration
# Experimental: (§1) T47D (ATCC HTB-133) was purchased from Biomedia (Thailand) Co., LTD. L929 (ATCC CCL-1) was received as a gift from Prof. Tanapat Palaga, Department of Microbiology, Faculty of Science, Chulalongkorn University, Bangkok, Thailand. The cells were cultured in Dulbecco's Modified Eagle's Medium (DMEM; Gibco) supplemented with 10% fetal bovine serum (FBS; HyClone), 100 U mL^−1 penicillin and 100 µg mL^−1 streptomycin (Gibco) at 37 °C with 5% CO2.
# (§2) The antiproliferative activity was determined by MTT assay. Briefly, the cells were plated into a 96-well microplate at the density of 10 000 cells per well. The cells were allowed to grow overnight before treated with the solutions of compounds in culture medium at the designated concentrations for 48 hours. The medium was then replaced with MTT solution (0.5 mg mL^−1 MTT in culture medium) and incubated for 3 hours. A 100 µL of DMSO was used to dissolve the produced formazan. Absorbance at 570 nm was then measured using a microplate reader (Varioskan™ LUX multimode microplate reader, Thermo Scientific™). Percent viability was calculated relative to the vehicle control (DMSO).
# [14] = Cytotoxicity MTT assay, L929; type: cell-based, mouse; details: mouse, L929 fibroblast cells; MTT, 48 hours
# Experimental: as §1, §2
# [15] = tested on: EKVX; assay: NCI60 five-dose screen; type: cell-based; details: Homo sapiens, NSC lung cancer; for CC50: read-out: LC50 (the source's name)
# [16] = tested on: NCI-H322M; assay: NCI60 five-dose screen; type: cell-based; details: Homo sapiens, NSC lung cancer; for CC50: read-out: LC50 (the source's name)
# [17] = tested on: 786-0; assay: NCI60 five-dose screen; type: cell-based; details: Homo sapiens, 786-0, renal cancer; for CC50: read-out: LC50 (the source's name)
# [18] = tested on: K-562; assay: NCI60 five-dose screen; type: cell-based; details: Homo sapiens, K562, K-562, leukemia; for CC50: read-out: LC50 (the source's name)
# [19] = tested on: SNB-75; assay: NCI60 five-dose screen; type: cell-based; details: Homo sapiens, SNB-75, CNS cancer; for CC50: read-out: LC50 (the source's name)
# [20] = tested on: OVCAR-4; assay: NCI60 five-dose screen; type: cell-based; details: Homo sapiens, OVCAR-4, ovarian cancer; for CC50: read-out: LC50 (the source's name)
# [21] = tested on: ACHN; assay: NCI60 five-dose screen; type: cell-based; details: Homo sapiens, renal cancer; for CC50: read-out: LC50 (the source's name)
# [22] = Homo sapiens, SK-MEL-5, SK-MEL-5, melanoma
# [23] = Homo sapiens, SK-MEL-5, melanoma
IC50 [6] [µM],Compound,GI50 [1] [µM],CC50 [1] [µM],GI50 [2] [µM],CC50 [2] [µM],GI50 [3] [µM],CC50 [3] [µM],"CC50 [4, 22] [µM]","GI50 [4, 23] [µM]",GI50 [5] [µM],CC50 [5] [µM],GI50 [7] [µM],CC50 [7] [µM],CC50 [8] [µM],GI50 [8] [µM],GI50 [9] [µM],CC50 [9] [µM],GI50 [10] [µM],CC50 [10] [µM],GI50 [11] [µM],other results
3.4 ± 0.6,"O=C(N/N=C/c1ccc[nH]1)c1[nH]c2ccc(Br)cc2c1-c1ccccc1 [Derivative 3a, (E)-N′-((1H-Pyrrol-2-yl)methylene)-5-bromo-3-phenyl-1H-indole-2-carbohydrazide]",0.388,56.5,0.202,14.6,0.045,22,15.7,0.302,0.44,59.2,0.416,35,35.1,0.261,0.488,37.4,0.357,33.6,0.099,CC50 [11]: 8.03 µM; GI50 [12]: 2.46 µM; CC50 [12]: 37.1 µM; Selectivity index (SI) [13]: 16.4; IC50 at 48 h [14]: 26.3 ± 14.5 µM; GI50 [15]: 1.23 µM; CC50 [15]: 33.4 µM; GI50 [16]: 0.661 µM; CC50 [16]: 36.5 µM; GI50 [17]: 0.791 µM; CC50 [17]: 23.9 µM; GI50 [18]: 0.202 µM; CC50 [18]: > 100 µM; GI50 [19]: 0.136 µM; CC50 [19]: 16 µM; GI50 [20]: 0.814 µM; CC50 [20]: 33.6 µM; GI50 [21]: 0.355 µM; CC50 [21]: 21.2 µM
2.6 ± 0.8,"CCOC(=O)c1ccc(/C=N/NC(=O)c2[nH]c3ccc(Br)cc3c2-c2ccccc2)[nH]1 [Derivative 3i, Ethyl (E)-5-((2-(5-bromo-3-phenyl-1H-indole-2-carbonyl)hydrazono)methyl)-1H-pyrrole-2-carboxylate]",2.22,38,1.6,26.2,0.46,82.2,7.68,1.48,0.897,9.2,2.98,62.8,36.9,3.15,2.65,94.5,3.25,79.4,0.614,CC50 [11]: 48.5 µM; GI50 [12]: 6.92 µM; CC50 [12]: > 100 µM; L929 cell survival [13]: > 80%; L929 toxicity at single concentration [13]: — ^c (No toxicity observed at 50 µM single concentration (>80% cell survival).); GI50 [15]: 4.29 µM; CC50 [15]: > 100 µM; GI50 [16]: 3.3 µM; CC50 [16]: > 100 µM; GI50 [17]: 4.48 µM; CC50 [17]: > 100 µM; GI50 [18]: 1.08 µM; CC50 [18]: > 100 µM; GI50 [19]: 0.399 µM; CC50 [19]: > 100 µM; GI50 [20]: 4.26 µM; CC50 [20]: > 100 µM; GI50 [21]: 1.86 µM; CC50 [21]: 73.8 µM
0.2 ± 0.1,"Cc1[nH]c(/C=N/NC(=O)c2[nH]c3ccc(Br)cc3c2-c2ccccc2)c(C)c1[N+](=O)[O-] [Derivative 3r, (E)-5-Bromo-N′-((3,5-dimethyl-4-nitro-1H-pyrrol-2-yl)methylene)-3-phenyl-1H-indole-2-carbohydrazide]",1.92,11.6,3.51,35.7,2.43,29.6,5.87,1.5,1.89,9.15,3.45,43.1,7.51,1.9,3.56,38.7,3.19,35.6,2.9,CC50 [11]: 37.5 µM; GI50 [12]: 5.1 µM; CC50 [12]: 41.2 µM; L929 cell survival [13]: > 80%; L929 toxicity at single concentration [13]: — ^c (No toxicity observed at 50 µM single concentration (>80% cell survival).); GI50 [15]: 3.34 µM; CC50 [15]: 34.9 µM; GI50 [16]: 4.22 µM; CC50 [16]: 89.5 µM; GI50 [17]: 2.35 µM; CC50 [17]: 17 µM; GI50 [18]: 2.69 µM; CC50 [18]: > 100 µM; GI50 [19]: 2.19 µM; CC50 [19]: 21.5 µM; GI50 [20]: 1.97 µM; CC50 [20]: 18.8 µM; GI50 [21]: 3.3 µM; CC50 [21]: 33.4 µM

Compound,IC50 [6] [µM],GI50 [1] [µM],CC50 [1] [µM],GI50 [2] [µM],CC50 [2] [µM],GI50 [3] [µM],CC50 [3] [µM],"CC50 [4, 22] [µM]","GI50 [4, 23] [µM]",GI50 [5] [µM],CC50 [5] [µM],GI50 [7] [µM],CC50 [7] [µM],CC50 [8] [µM],GI50 [8] [µM],GI50 [9] [µM],CC50 [9] [µM],GI50 [10] [µM],CC50 [10] [µM],GI50 [11] [µM],other results
"Cc1cc(C)c(/C=N/NC(=O)c2[nH]c3ccc(Br)cc3c2-c2ccccc2)[nH]1 [Derivative 3c, (E)-5-Bromo-N′-((3,5-dimethyl-1H-pyrrol-2-yl)methylene)-3-phenyl-1H-2-carbohydrazide]",11.1 ± 2,2.96,35.4,2.93,32.4,2.61,32.7,19.3,2.52,2.11,19.3,3.86,39.4,52.3,3.25,3.81,38.8,3.82,45.4,2.36,"CC50 ([4]; SK-MEL-5, melanoma): 28.8 µM; CC50 [11]: 32.4 µM; GI50 [12]: 7.32 µM; CC50 [12]: 45.2 µM; Selectivity index (SI) [13]: 2.54; IC50 at 48 h [14]: 29.5 ± 12.6 µM; GI50 [15]: 3.24 µM; CC50 [15]: 35.4 µM; GI50 [16]: 2.69 µM; CC50 [16]: 38.7 µM; GI50 [17]: 5.19 µM; CC50 [17]: 63.9 µM; GI50 [18]: 2.43 µM; CC50 [18]: > 100 µM; GI50 [19]: 2.68 µM; CC50 [19]: 43.9 µM; GI50 [20]: 3.55 µM; CC50 [20]: 40.7 µM; GI50 [21]: 3.03 µM; CC50 [21]: 34.2 µM"
